The source of these data is US20210170035A1, “METHOD OF TREATING CANCER BY TARGETING MYELOID-DERIVED SUPPRESSOR CELLS” (priority 2016, published 2021).

The subject of test [1] is F4/80+CD86+ : F4/80+CD206+ macrophages. The test is described as follows: Ratio of M1 to M2 macrophages in 4T1 solid tumor. It counts as in vivo, balb/c mice. Conditions: tumor digestion at end of therapeutic study. The method, then:
The ratio of M1 to M2 macrophages (F4/80+CD86+: F4/80+CD206+) was tested in groups of untreated control, FA-TLR7 agonist, FA-PI3K inhibitor, FA-Tubulysin and combination as well as competition groups.
As described in the previous methods part, after tumor digestion at the end of therapeutic study, isolated cells were stained by F4/80 macrophage marker and M1 (CD86), M2 (CD206) markers. Macrophages in a tumor environment have been considered as a mainly M2 macrophage function, which can support tumor growth and suppress the immune response. On the other hand, M1 macrophages have been considered to be able to eliminate tumor cells and stimulate an anti-cancer immune response. Therefore, to study the M1 to M2 macrophage ratio is very important for targeting FR-β positive TAMs/MDSCs. […] Therefore, it could be concluded that by targeting FR+ TAMs/MDSCs in 4T1 solid tumor, the three classes of FA-conjugated […] are able to convert immunosuppression M2 macrophages environment to an anti-cancer M1 macrophages environment, which would contribute to the slow growth of a tumor.

Test [2] deals with MDSCs (CD11b+Gr1+). The test is described as follows: MDSCs population (CD11b+Gr1+) in 4T1 solid tumor. It counts as in vivo, balb/c mice. The conditions noted are these: tumor digestion at end of therapeutic study. The method, then:
The MDSCs population (CD11b+Gr1+) was tested in groups of untreated control, FA-TLR7 agonist, FA-PI3K inhibitor, FA-Tubulysin and combination as well as competition groups.
As described in previous methods part, after tumor digestion at the end of therapeutic study, isolated cells were stained by MDSCs markers CD11b+Gr1+, see FIG. 26.

For test [3], the system named is 4T1 solid tumor. Conditions: for anti-cancer effect on co-injection of 200 times more competitor (FA-PEG-NH2): competition group, same schedule; for tumor growth, therapeutic study: 10 nmol FA-TLR7 agonist, 10 nmol FA-PI3K inhibitor, 30 nmol FA-tubulysin.
Procedure: 4T1 solid tumor model: Female balb/c mice at the age of 6 to 8 weeks were kept on a folate deficient diet for 2 weeks. Before tumor implantation, fur on the left side of the mouse body was removed by an electric trimmer. 0.05 million 4T1 cells suspended in 50 μL completed RPMI 1640 medium were subcutaneously implanted near the mammary fat pad. Treatment was commenced at day 6 when the volume of tumor reached around 20 to 50 mm^3.
Treatment was continued for 2 weeks. Tumor volume was measured every day.
Treatment was conducted by i.v. injection of 100 μl of 10 nmol FA-TLR7 agonist in PBS for 5 days per week starting at day 6 after tumor implantation (subcutaneous, 0.05 million cells/mouse). Treatment was continued for 2 weeks. Competition group was conducted at the same schedule by co-injection of 200 times more competitors (FA-PEG-NH2) with 10 nmol of FA-TLR7 agonist. The total injection volume was 100 μl. Tumor volume was measured every day.
Treatment was conducted by i.v. injection of 100 μl of 30 nmol FA-tubulysin in PBS for 5 days per week starting at day 6 after tumor implantation (subcutaneous, 0.05 million cells/mouse). Treatment was continued for 2 weeks. Competition group was conducted at the same schedule by co-injection of 200 times more competitors (FA-PEG-NH2) with 30 nmol of FA-tubulysin. The total injection volume was 100 μl. Tumor volume was measured every day.
Treatment was conducted by i.v. injection of 100 μl of 10 nmol FA-PI3K inhibitor in PBS for 5 days per week starting at day 6 after tumor implantation (subcutaneous, 0.05 million cells/mouse). Treatment was continued for 2 weeks. Competition group was conducted at the same schedule by co-injection of 200 times more competitors (FA-PEG-NH2) with 10 nmol of FA-PI3K inhibitor. The total injection volume was 100 μl. Tumor volume was measured every day.
Test [4] has as its system F4/80+ macrophages. The test is described as follows: Intracellular staining of arginase on F4/80+ macrophages from 4T1 solid tumor. The class given is in vivo, balb/c mice. The conditions noted are these: tumor digestion at end of therapeutic study.
Procedure: Intracellular arginase staining: Cell surface markers for TAMs/MDSCs were labeled following procedures mentioned previously. 0.1 μL fixable viability dye eFluor® 660 was added together with antibody cocktails. After washing with PBS, cells were fixed with 4% formaldehyde in 500 μL of PBS for 15 min at 4° C. Cells were spun down to remove fixing solution. Cells were washed two times with 500 μL washing buffer containing 0.1 M glycine and 0.05% sodium azide. After being spun down a final time, cells were added 1 mL permeabilization solution containing 0.1 M glycine, 0.05% sodium azide and 0.1% triton-100. Permeabilization was performed at room temperature for 5 min. Permeabilized cells were spun down at 1500 rpm for 1 min, and the cells were washed three times with 1 mL blocking buffer containing 0.05 M glycine, 0.05% sodium azide and 0.2% gelatin. Cells were then re-suspended in 1 mL blocking buffer at 4° C. overnight to block non-specific intracellular binding. Cells were then spun down at 1500 rpm for 1 min to remove the supernatant and another 100 μL blocking buffer containing 1 μL FITC-arginase was added. Cells were kept in the dark at 4° C. overnight. After being spun down at 1500 rpm for 1 min, cells were washed with 1 mL blocking buffer and were then ready for flow cytometry analysis (BD Accuri C6™ flow cytometer). […]
Where [5] appears, read: i.v. 5 days per week for 2 weeks from day 6.

For the molecule `Cc1c(CN2CCN(C(=O)C(C)OC(=O)OCCSSCC(NC(=O)CCC(NC(=O)c3ccc(NCc4cnc5nc(N)[nH]c(=O)c5n4)cc3)C(=O)O)C(=O)O)CC2)sc2c(N3CCOCC3)nc(-c3cnc(N)nc3)nc12` (centres unmarked) [FA-PI3K inhibitor], the “M1 to M2 macrophages ratio vs untreated control” value in test [1] was “dramatically increased”. Besides, in test [2], the “MDSCs population (CD11b+Gr1+) vs untreated control” value is given as “no difference”. In test [3], the “anti-cancer effect on co-injection of 200 times more competitor (FA-PEG-NH2)” value was “can be competed”. In test [3] (setting [5]), the “tumor growth, therapeutic study” value is “tumor growth was slowed down”. The “arginase+F4/80+ cell population in live cells vs untreated control” value in test [4] is on record as “dramatically decreased”.

For the molecule `CCCCc1nc2c(N)nc3ccccc3c2n1CC(C)(C)OC(=O)OCCSSCC(NC(=O)CCC(NC(=O)c1ccc(NCc2cnc3nc(N)[nH]c(=O)c3n2)cc1)C(=O)O)C(=O)O` (centres unmarked) [FA-TLR7 agonist], the “M1 to M2 macrophages ratio vs untreated control” value in test [1] is on record as “dramatically increased”. Further, the “MDSCs population (CD11b+Gr1+) vs untreated control” value in test [2] is on record as “dramatically decreased MDSCs population”. Besides, the “anti-cancer effect on co-injection of 200 times more competitor (FA-PEG-NH2)” value in test [3] is “can be competed”. The “tumor growth, therapeutic study” value in test [3] (setting [5]) is reported as “tumor growth was slowed down”. Further, the “tumor growth, dose study” value in test [3] (i.v. 5 days per week for 2 weeks from day 6, especially in groups of 5 nmol, 10 nmol and 20 nmol) is “tumor growth was slowed down”. Besides, the “arginase+F4/80+ cell population in live cells vs untreated control” value in test [4] is recorded as “dramatically decreased”.
